From paper PMC2773443 (Biochemistry, 2009) come the findings set out here.

Assay [1] deals with T1, Bh0493, uronate isomerase from Bacillus halodurans (Halalkalibacterium halodurans, UniProt Q9KFI6).
T1 sequence (Q9KFI6 1-427): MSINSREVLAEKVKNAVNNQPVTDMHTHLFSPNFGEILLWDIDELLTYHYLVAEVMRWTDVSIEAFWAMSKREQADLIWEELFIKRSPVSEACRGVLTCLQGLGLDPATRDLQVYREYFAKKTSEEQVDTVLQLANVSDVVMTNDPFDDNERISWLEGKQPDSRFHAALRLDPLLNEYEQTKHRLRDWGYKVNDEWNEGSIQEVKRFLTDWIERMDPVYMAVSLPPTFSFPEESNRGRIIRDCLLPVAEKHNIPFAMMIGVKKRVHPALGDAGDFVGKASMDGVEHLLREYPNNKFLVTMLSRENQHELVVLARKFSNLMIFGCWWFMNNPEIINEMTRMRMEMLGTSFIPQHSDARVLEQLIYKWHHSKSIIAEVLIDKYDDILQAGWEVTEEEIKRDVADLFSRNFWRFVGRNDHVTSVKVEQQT
In words: X-ray crystal structure, […] Å. It counts as binding. The settings on record: Zn2+, active site; 40 mM ligand; pH 6.0.

The target in assay [2] is T1, Bh0493, uronate isomerase from Bacillus halodurans. In words: X-ray crystal structure, […] Å. It counts as binding. Particulars: Zn2+, active site; 40 mM ligand; pH 8.5 (form 1), pH 6.0 (form 2).
Assay [3] concerns the target T2, uronate isomerase (URI) from E. coli (Escherichia coli, UniProt P0A8G3).
T2 sequence (P0A8G3 1-470): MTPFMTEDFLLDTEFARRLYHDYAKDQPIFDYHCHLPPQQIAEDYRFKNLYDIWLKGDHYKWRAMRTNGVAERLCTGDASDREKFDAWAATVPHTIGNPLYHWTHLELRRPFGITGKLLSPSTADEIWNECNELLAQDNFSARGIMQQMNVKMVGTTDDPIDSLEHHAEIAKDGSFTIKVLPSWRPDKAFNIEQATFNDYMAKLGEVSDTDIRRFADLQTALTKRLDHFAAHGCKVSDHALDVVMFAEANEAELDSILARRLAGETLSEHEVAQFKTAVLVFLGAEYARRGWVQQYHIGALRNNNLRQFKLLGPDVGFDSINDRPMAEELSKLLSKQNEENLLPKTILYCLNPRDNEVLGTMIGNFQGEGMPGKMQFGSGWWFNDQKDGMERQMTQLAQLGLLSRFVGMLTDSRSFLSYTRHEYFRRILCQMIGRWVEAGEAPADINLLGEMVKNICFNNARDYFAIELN
Kind of assay: inhibition kinetics, slope inhibition constant. In kind it is biochemical.

Assay [4] deals with T1, Bh0493, uronate isomerase from Bacillus halodurans. Kind of assay: inhibition kinetics, slope inhibition constant. It counts as biochemical.

Regarding `O=C(O)[C@H]1OC(O)[C@H](O)[C@@H](O)[C@@H]1O` (stereo partly drawn) [I, D-glucuronate], the “X-ray crystal structure, 2.1 Å” value in assay [1] was “In the complex with D-glucuronate, the substrate is bound in the open chain configuration”.

`O=C(O)[C@@H](O)C(O)[C@H](O)C(=O)O` [III, D-arabinarate]: the “X-ray crystal structure, 2.2 Å (two crystal forms)” value in assay [2] is “two inhibitors that mimic the proposed cis-enediol(ate) intermediate, D-arabinarate (III) and its hydroxamate derivative (II)”.

As to `O=C(O)[C@H]1OC[C@H](O)[C@@H](O)[C@@H]1O` [IV, 2,6-Anhydro-L-gulonic acid], the Ki stood at 45 ± 4 µM in assay [3] and 24 ± 2 µM in assay [4].

One may read the Ki as a dissociation constant, usually derived from enzyme kinetics or from competition with a known ligand.
